Measurements from DBAASP.
In brackets after ≈: the same amount, converted by molar mass. Several values for one entry are separate records, joined by “and”; a condition that tells them apart may be missing. Equal entries are not always repeated. Values belong to the molecule of their own block, whether it stands above or below them.

Experiments:
Test in all cases: ≥ marks a high value that may be exact or a test limit, other limits are often not marked, values filed in µg/mL are converted to µM
[1] = system: Staphylococcus aureus ATCC BAA-1556
[2] = system: Salmonella enterica subsp. enterica serovar Typhimurium ATCC 14028s
[3] = system: Pseudomonas aeruginosa H744
[4] = system: Pseudomonas aeruginosa Z61
Escherichia coli UB1005 = system: Escherichia coli UB1005
[5] = system: Pseudomonas aeruginosa H374
[6] = system: Pseudomonas aeruginosa H547
[7] = system: Pseudomonas aeruginosa K799
[8] = system: Mannheimia haemolytica Serovar 1
Pasteurella multocida = system: Pasteurella multocida
Aspergillus fumigatus = system: Aspergillus fumigatus
[9] = system: Corynebacterium pseudotuberculosis ATCC 19410
Bibersteinia trehalosi = system: Bibersteinia trehalosi
Klebsiella pneumoniae = system: Klebsiella pneumoniae
[10] = system: Salmonella enterica subsp. arizonae
Staphylococcus aureus = system: Staphylococcus aureus
[11] = system: Mannheimia haemolytica Serovar 2
[12] = system: Pseudomonas aeruginosa PAO1
[13] = system: Mannheimia haemolytica Serovar 6
[14] = system: Bacillus subtilis ATCC 6633
[15] = system: Staphylococcus aureus FDA 209P
Pseudomonas fluorescens = system: Pseudomonas fluorescens
[16] = system: Pseudomonas aeruginosa M76
[17] = system: Achromobacter xylosoxidans
[18] = system: Pseudomonas aeruginosa M917
[19] = system: Pseudomonas aeruginosa M1426
[20] = system: Salmonella enterica serovar Typhimurium
Ralstonia pickettii = system: Ralstonia pickettii
[21] = system: Pseudomonas aeruginosa M1251
Pseudomonas aeruginosa = system: Pseudomonas aeruginosa
[22] = system: Stenotrophomonas maltophilia
Candida albicans = system: Candida albicans
[23] = system: Pseudomonas aeruginosa R70

Structure (SMILES): CC[C@H](C)[C@H](NC(=O)[C@H](CC(C)C)NC(=O)[C@H](C)NC(=O)[C@@H]1CCCN1C(=O)[C@H](CC(C)C)NC(=O)CNC(=O)[C@@H](NC(=O)[C@@H](NC(=O)[C@H](CC(C)C)NC(=O)[C@@H](NC(=O)[C@H](CCCCN)NC(=O)[C@H](CO)NC(=O)CNC(=O)CNC(=O)[C@H](CCCCN)NC(=O)[C@@H](NC(=O)[C@H](CC(C)C)NC(=O)[C@H](CC(N)=O)NC(=O)[C@H](CCCCN)NC(=O)[C@@H](NC(=O)[C@H](Cc1ccccc1)NC(=O)[C@H](CCCCN)NC(=O)[C@H](CCCCN)NC(=O)[C@H](Cc1c[nH]c2ccccc12)NC(=O)[C@@H](N)CCCCN)[C@@H](C)CC)[C@@H](C)O)[C@@H](C)CC)[C@@H](C)O)[C@@H](C)O)C(=O)N[C@@H](CO)C(=O)O [KWKKFIKNLTKGGSKILTTGLPALIS]
MIC [2]: 5.63 µM (≈ 16 µg/mL)
MIC [3]: 1.41 µM (≈ 4 µg/mL)
MIC [4]: 6.68 µM (≈ 19 µg/mL)
MIC (Escherichia coli UB1005): 0.703 µM (≈ 2 µg/mL)
MIC [5]: 1.41 µM (≈ 4 µg/mL)
MIC [6]: 5.63 µM (≈ 16 µg/mL)
MIC [7]: 11.3 µM (≈ 32 µg/mL)

Structure (SMILES): CC[C@H](C)[C@H](NC(=O)[C@@H](N)C(C)C)C(=O)N[C@@H](CC(=O)O)C(=O)N[C@@H](CC(=O)O)C(=O)N[C@@H](CC(C)C)C(=O)N[C@@H](CCCCN)C(=O)N[C@@H](CCCCN)C(=O)N[C@H](C(=O)N[C@@H](C)C(=O)N[C@@H](CCCCN)C(=O)N[C@@H](CCCCN)C(=O)N[C@H](C(=O)N[C@@H](CCCN=C(N)N)C(=O)N[C@@H](CCCN=C(N)N)C(=O)N[C@@H](CCC(=O)O)C(=O)N[C@@H](CC(C)C)C(=O)N[C@@H](CC(C)C)C(=O)N[C@@H](CS)C(=O)N[C@@H](CCCCN)C(=O)N[C@@H](CCCCN)C(=O)N[C@@H](Cc1cnc[nH]1)C(=O)N[C@@H](Cc1cnc[nH]1)C(=O)N[C@@H](CCCCN)C(=O)N[C@@H](CCCCN)C(=O)N[C@@H](CC(C)C)C(=O)N[C@@H](CC(N)=O)C(=O)O)C(C)C)C(C)C [VIDDLKKVAKKVRRELLCKKHHKKLN]
MIC [14]: 20.4 µM (≈ 64 µg/mL)
MIC [15]: 11.3 µM (≈ 35.5 µg/mL)

Structure (SMILES): CC(C)C[C@H](NC(=O)[C@H](C)NC(=O)[C@H](CC(C)C)NC(=O)[C@H](C)NC(=O)[C@H](CC(C)C)NC(=O)[C@H](CCCCN)NC(=O)[C@H](C)NC(=O)[C@H](CC(C)C)NC(=O)[C@H](CCCCN)NC(=O)[C@H](CCCCN)NC(=O)[C@H](C)NC(=O)[C@H](CC(C)C)NC(=O)[C@H](CCCCN)NC(=O)[C@H](C)NC(=O)[C@H](CC(C)C)NC(=O)[C@H](CCCCN)NC(=O)[C@H](CCCCN)NC(=O)[C@H](C)NC(=O)[C@@H](N)C(C)C)C(N)=O [VAKKLAKLAKKLAKLALAL]
MIC (Pseudomonas fluorescens): 4.02 µM (≈ 8 µg/mL)
MIC [16]: 4.02 µM (≈ 8 µg/mL)
MIC [17]: ≥ 32.1 µM
MIC [18]: 8.03 µM (≈ 16 µg/mL)
MIC [19]: 4.02 µM (≈ 8 µg/mL)
MIC [20]: ≥ 32.1 µM
MIC (Ralstonia pickettii): 4.02 µM (≈ 8 µg/mL)
MIC [21]: 4.02 µM (≈ 8 µg/mL)
MIC (Escherichia coli UB1005): ≥ 32.1 µM
MIC (Pseudomonas aeruginosa): 4.02 µM and 5.68 µM
MIC (Staphylococcus aureus): 16.1 µM (≈ 32 µg/mL)
MIC [22]: 2.01 µM (≈ 4 µg/mL)
MIC (Candida albicans): 8.03 µM (≈ 16 µg/mL)
MIC [12]: 16.1 µM (≈ 32 µg/mL)
MIC [23]: 4.02 µM (≈ 8 µg/mL)

More lines, main results first:

MIC [1]: ≥ 100 µM
Structure (SMILES): CC(C)C[C@H](NC(=O)[C@H](CC(C)C)NC(=O)[C@H](CCCCN)NC(=O)[C@H](CC(C)C)NC(=O)[C@H](CC(C)C)NC(=O)[C@H](CC(C)C)NC(=O)[C@H](CCCCN)NC(=O)[C@@H](N)CC(C)C)C(N)=O [LKLLLKLL]

MIC (Pasteurella multocida): 14 µM (≈ 20 µg/mL)
MIC (Aspergillus fumigatus): 14 µM (≈ 20 µg/mL)
MIC [9]: 14 µM (≈ 20 µg/mL)
MIC (Bibersteinia trehalosi): 14 µM (≈ 20 µg/mL)
MIC (Klebsiella pneumoniae): 10.5 µM (≈ 15 µg/mL)
MIC [10]: 14 µM (≈ 20 µg/mL)
MIC (Staphylococcus aureus): > 14 µM
MIC [12]: 14 µM (≈ 20 µg/mL)
Structure (SMILES): CC[C@H](C)[C@H](NC(=O)[C@@H](NC(=O)[C@H](Cc1cnc[nH]1)NC(=O)[C@@H](NC(=O)[C@@H](NC(=O)[C@H](CCCCN)NC(=O)[C@H](CCCN=C(N)N)NC(=O)[C@@H](NC(=O)[C@@H](NC(=O)[C@H](CCCN=C(N)N)NC(=O)[C@@H](N)CCCN=C(N)N)[C@@H](C)CC)[C@@H](C)CC)[C@@H](C)CC)[C@@H](C)CC)[C@@H](C)CC)C(N)=O [RRIIRKIIHII]
MIC [8]: 11.7 µM (≈ 16.7 µg/mL)
MIC [11]: 5.8 µM (≈ 8.29 µg/mL)
MIC [13]: 5.8 µM (≈ 8.29 µg/mL)
